In paper PMC9227536, “Prediction of Pharmacokinetics of IDP-73152 in Humans Using Physiologically-Based Pharmacokinetics” (Pharmaceutics, 2022):

Legend:
[1] = Unbound fraction in plasma (rapid equilibrium dialysis), human; format: in vitro ADME; conditions: humans plasma, 0.3, 1, 3 μM, RED 5 h, read-out: fu,p
Procedure: The unbound fractions of IDP-73152 in various matrices were measured according to the manufacturer’s instructions for the rapid equilibrium dialysis (RED) device (ThermoFisher Scientific, Waltham, MA, USA). Briefly, IDP-73152 was added to the plasma or the microsomal/hepatocyte incubation buffer from various species (i.e., mouse, rat, dog, and human for microsomal incubation; rat for hepatocyte incubation) to obtain final concentrations of the compound at 0.3, 1, and 3 μM. After the membrane insert was placed in the RED plate, the solution containing IDP-73152 was added (400 µL) to the sample chamber, and the dialysis buffer (600 μL) was added to the buffer chamber. The RED plate was sealed with parafilm and then incubated at 37 °C in the orbital shaker (Lab Companion, Daejeon, Korea) at 100 rpm for 5 h. After a 50 μL aliquot was aspirated from both the sample and buffer chambers, an equal volume of protein-free buffer or blank medium was replaced in the aspirated sample or buffer to render the matrices compositionally identical. The IDP-73152 concentration in the buffer/sample chambers (i.e., CBuffer Chamber and CSample Chamber) was determined by an assay. Thus, the fraction unbound was defined as:(2) % Fraction unbound=(CBuffer Chamber/CSample Chamber)×100%

[2] = PBPK model prediction, mice
Source text: (§1) In this study, the PBPK model involving ten tissues (i.e., adipose tissue, brain, heart, kidney, liver, lung, muscle, skin, spleen, and testis (Figure 2; see Appendix A for detailed mathematical descriptions)) was considered to be applicable for the description of IDP-73152 PK in rats, mice, dogs, and humans. Physiological variables were obtained from the literature; they are summarized in Supplementary Table S1.
(§2) For the estimation of the volume of the distribution of IDP-73512 in rats, the steady-state volume of distribution (Vss) was calculated using the following equation [30]:(10) Vss=VP+Vrbc×EP+∑VT,i×KP,ss,i, where Vp, Vrbc, and VT,i are the volumes of plasma, red blood cells, and tissues, respectively. The erythrocyte-to-plasma partition coefficient (EP), is calculated by EP=1+(BP−1)/Hematocrit . The KP,ss for each tissue obtained from Equation (8) was applied for Equation (10). For the case of non-eliminating organs, the KP,ss was regarded as the tissue-to-plasma partition coefficient (KP) in PBPK equations (Appendix A). For the case of the liver—i.e., the eliminating organ—the KP,ss (KP,ss,LI) had to be corrected to account for the equilibrium being altered by the elimination. Thus, a PBPK-operative KP for liver (KP,LI) was calculated using the following equation [31]:(11) KP,LI=KP,ss,LI/(1−ER), where ER is the hepatic extraction ratio of the compound (i.e., CLh/(QLI·BP)). In this study, a compartmental absorption and transit (CAT) model consisting of stomach and five intestinal segments was considered for the description of the intestinal absorption kinetics of IDP-73152 in animals and humans. We assumed that the initial compartment denoted the stomach (Equation (12)), and the subsequent three compartments represented the small intestine and two additional compartments for the large intestine (i.e., a total of six compartments, with absorption occurring in the five intestinal compartments) (Equation (13)). The differential equations describing the rate of drug absorption and transit in the gastrointestinal tract can be written as:
(§3) For the intestine, viz. i = 1~5:(13) dMi/dt=Kt,i−1×Mi−1−(Kt,i+ka,i)×Mi, where Ms is the amount of drug in the stomach; Mi is the amount of drug in the i-th intestinal segment; Ks, Kt,i, and ka,i are the rate constants of gastric emptying, intestinal transit, and the segmental absorption rate, respectively. In Equation (13) at i = 1, Kt,0 and M0 represent Ks and Ms, respectively. […] The absorption rate constant in the intestinal segments in humans, ka,i,human, was assumed to be identical along the segments and calculated as follows: first, Peff was empirically estimated from the Caco-2 cell permeability (Papp):(14) LogPeff=0.4926×LogPapp−0.1454 […]

[3] = PBPK model prediction, dogs
Source text: as §1, §2, §3

[4] = tested on: penicillin-resistant Streptococcus pneumonia; conditions: infected mice, twice-a-day dosing; cited from earlier work

CC(C)(C)[C@H](NC(=O)[C@H](CC1CCCC1)CN(O)C=O)C(=O)N1CCC(NCc2cc(F)c(F)cc2F)CC1 [IDP-73152]
fraction unbound at 5 h [1]: 0.0744 ± 0.0019
AUC ratio ([2]; intravenous 10 mg/kg): 1.15
Cmax ratio without the scaling (SF) ([2]; oral): 1.72
AUC ratio ([2]; oral 20 mg/kg): 0.880
Cmax ratio ([2]; oral 20 mg/kg): 0.906
AUC ratio ([3]; intravenous 10 mg/kg): 1.13
Cmax ratio without the scaling (SF) ([3]; oral): 0.760
AUC ratio ([3]; oral 20 mg/kg): 1.08
Cmax ratio ([3]; oral 20 mg/kg): 0.832
ED50 (oral dose at which the survival rate was 50%) [4]: 3.0 mg/kg
